Measured values from the CheMixHub drug solubility set.

Assay: xn = mol fraction of the nth substance listed, in the solute-free solvent

O=C(O)CC(O)C(=O)O (stereo not given) + CC#N + CCCCOC(C)=O
solubility (g/100 g solution)
Conditions	278.15 K	283.15 K	288.15 K	293.15 K	298.15 K	303.15 K	308.15 K	313.15 K	318.15 K	323.15 K
x2 = 0.4143	1.23	1.39	1.63	1.79	2.06	2.36	2.73	3.15	3.71	4.37
x2 = 0.5481	1.54	1.77	2.1	2.45	2.86	3.39	3.96	4.62	5.41	6.44
x2 = 0.6535	2.05	2.38	2.8	3.32	3.93	4.61	5.48	6.51	7.78	9.24
x2 = 0.7389	2.71	3.15	3.56	4.05	4.88	5.66	6.77	7.85	9.29	11.2
x2 = 0.8093	3.25	3.73	4.29	4.93	5.81	6.58	7.95	9.34	10.9	13.2
x2 = 0.8685	3.84	4.31	4.89	5.73	6.8	8.05	9.49	11.3	13.5	15.8
x2 = 0.9188	4.19	4.92	5.74	6.72	8.05	9.62	11.4	13.7	16.4	19.4

CCC(C)n1ncn(-c2ccc(N3CCN(c4ccc(OCC5COC(Cn6cncn6)(c6ccc(Cl)cc6Cl)O5)cc4)CC3)cc2)c1=O (stereo not given) + ClCCl + CO
solubility (g/100 g solution)
Conditions	x2 = 0.04066	x2 = 0.08707	x2 = 0.1405	x2 = 0.2028	x2 = 0.2761	x2 = 0.364	x2 = 0.4709	x2 = 0.6041	x2 = 0.7744
288.15 K	0.122	0.244	0.561	1.46	4.71	10.6	19.3	28	31.4
293.15 K	0.147	0.294	0.696	1.84	5.79	12.5	21.2	29.4	32.6
298.15 K	0.177	0.355	0.855	2.28	6.97	14.5	23.2	30.8	33.9
303.15 K	0.212	0.426	1.04	2.83	8.37	16.8	25.3	32.2	35
308.15 K	0.253	0.508	1.26	3.5	9.95	19.3	27.6	33.6	36.2

CCC(C)n1ncn(-c2ccc(N3CCN(c4ccc(OCC5COC(Cn6cncn6)(c6ccc(Cl)cc6Cl)O5)cc4)CC3)cc2)c1=O (stereo not given) + ClC(Cl)Cl + CCCCO
solubility (g/100 g solution)
Conditions	x2 = 0.06524	x2 = 0.1357	x2 = 0.2121	x2 = 0.2952	x2 = 0.3858	x2 = 0.4851	x2 = 0.5945	x2 = 0.7153	x2 = 0.8497
288.15 K	0.0548	0.12	0.336	0.987	3.22	7.01	12	17.9	23.9
293.15 K	0.0651	0.142	0.387	1.18	3.56	7.85	13.2	18.9	24.8
298.15 K	0.0777	0.171	0.445	1.39	3.92	8.74	14.3	20.1	25.6
303.15 K	0.0924	0.202	0.509	1.65	4.3	9.68	15.4	21.3	26.5
308.15 K	0.109	0.237	0.583	1.93	4.71	10.7	16.6	22.4	27.4
